# Measurements: article PMC11995216, “End-to-End Backbone Cyclization Enhances Passive Permeability of bRo5 Oligomeric Depsipeptides with Nonlinear Size Dependence” (ACS Medicinal Chemistry Letters, 2025)
# “And” between values parts separate entries of the source, which are not always exact repeats. Equal values may be shown once. Read-outs that look alike come from different tables or passages of the source.
# Experiments:
# [1] = UV detection
# PAMPA [2] = conditions: UV detection, initial concentration 500 uM
# in vitro = conditions: PAMPA
# [3] = initial concentration 500 uM, UV detection
# [4] = PAMPA, 500 uM
# [5] = initial concentration 500 uM, UV detection; remark: listed apart in the source
# PAMPA [6] = conditions: UV detection
# [7] = calculated using Supplement Equation 1, UV detection
compound,measurement,setting,value
CCCCC[C@H](NC(=O)[C@@H](C)N(C)C(=O)OC(C)(C)C)C(=O)N(C)[C@H](C)C(=O)N[C@H](CCCCC)C(=O)N(C)[C@H](C)C(=O)O[C@@H](CCCCC)C(=O)N(C)[C@H](C)C(=O)O[C@@H](CCCCC)C(=O)OCc1ccccc1 (stereo in doubt) [Compound L2.2],% recovery,"[1]; Well 1 / %R, Well 1",95%
same,% recovery,"[1]; Well 2 / %R, Well 2",91% and 89%
same,% recovery,"[1]; Well 3 / %R, Well 3",91%
same,% recovery,"[1]; Well 4 / %R, Well 4",98% and 90%
same,% recovery,"[1]; Well 5 / %R, Well 5",89%
same,Acceptor Concentration,PAMPA [2]; Acceptor Concentration (uM) / [row 1],68.3 µM
same,Acceptor Concentration,PAMPA [2]; Acceptor Concentration (uM) / [row 2],68.9 µM
same,Acceptor Concentration,PAMPA [2]; Acceptor Concentration (uM) / [row 3],76.7 µM
same,Acceptor Concentration,PAMPA [2]; Acceptor Concentration (uM) / [row 4],75.8 µM
same,Acceptor Concentration,PAMPA [2]; Acceptor Concentration (uM) / [row 5],62.9 µM
same,Acceptor Concentration,PAMPA [2]; Acceptor Concentration (uM) / [row 6],70.1 µM
same,Acceptor Concentration,PAMPA [2]; Acceptor Concentration (uM) / [row 7],66.3 µM
same,Acceptor Concentration,PAMPA [2]; Acceptor Concentration (uM) / [row 8],62.1 µM
same,Acceptor Concentration,PAMPA [2]; Acceptor Concentration (uM) / [row 9],69 µM
same,Acceptor Concentration,PAMPA [2]; Acceptor Concentration (uM) / [row 10],63.9 µM
same,Papp at 500 uM,in vitro; Papp,27.9 ± 1.9 nm/s
same,acceptor concentration after incubation,"[3]; Well 1 / [acc], Well 1",70.2 µM
same,LogPapp,[4],-5.55 ± 0.03
same,Δ % diffusion,[4],↑17%
same,donor concentration after incubation,"[5]; Well 1 / [donor], Well 1",406 µM and 404 µM
same,donor concentration after incubation,"[5]; Well 2 / [donor], Well 2",384 µM and 380 µM
same,donor concentration after incubation,"[5]; Well 3 / [donor], Well 3",381 µM and 392 µM
same,donor concentration after incubation,"[5]; Well 4 / [donor], Well 4",416 µM and 380 µM
same,donor concentration after incubation,"[5]; Well 5 / [donor], Well 5",398 µM and 382 µM
same,Papp,PAMPA [6]; Papp (x 10^-6 cm/s) / [row 1],27 nm/s
same,Papp,PAMPA [6]; Papp (x 10^-6 cm/s) / [row 2],28.6 nm/s
same,Papp,PAMPA [6]; Papp (x 10^-6 cm/s) / [row 3],32 nm/s
same,Papp,PAMPA [6]; Papp (x 10^-6 cm/s) / [row 4],29.1 nm/s
same,Papp,PAMPA [6]; Papp (x 10^-6 cm/s) / [row 5],25.4 nm/s
same,Papp,PAMPA [6]; Papp (x 10^-6 cm/s) / [row 6],27.8 nm/s
same,Papp,PAMPA [6]; Papp (x 10^-6 cm/s) / [row 7],28 nm/s
same,Papp,PAMPA [6]; Papp (x 10^-6 cm/s) / [row 8],25.5 nm/s
same,Papp,PAMPA [6]; Papp (x 10^-6 cm/s) / [row 9],29 nm/s
same,Papp,PAMPA [6]; Papp (x 10^-6 cm/s) / [row 10],26.8 nm/s
same,%T,"[7]; Well 1 / %T, Well 1",0.34% and 0.4%
same,%T,"[7]; Well 2 / %T, Well 2",0.4%
same,%T,"[7]; Well 3 / %T, Well 3",0.36% and 0.39%
same,%T,"[7]; Well 4 / %T, Well 4",0.36% and 0.38%
same,%T,"[7]; Well 5 / %T, Well 5",0.38% and 0.4%
CCCCC[C@H](OC(=O)[C@@H](C)N(C)C(=O)[C@H](CCCCC)OC(=O)[C@@H](C)N(C)C(=O)OC(C)(C)C)C(=O)OCc1ccccc1 [Compound L1.2],% recovery,"[1]; Well 1 / %R, Well 1",93%
same,% recovery,"[1]; Well 2 / %R, Well 2",96%
same,% recovery,"[1]; Well 3 / %R, Well 3",85% and 90%
same,% recovery,"[1]; Well 4 / %R, Well 4",84% and 85%
same,% recovery,"[1]; Well 5 / %R, Well 5",82%
same,Acceptor Concentration,PAMPA [2]; Acceptor Concentration (uM) / experiment 1,72 µM
same,Acceptor Concentration,PAMPA [2]; Acceptor Concentration (uM) / experiment 2,80.6 µM
same,Acceptor Concentration,PAMPA [2]; Acceptor Concentration (uM) / experiment 3,77.4 µM
same,Acceptor Concentration,PAMPA [2]; Acceptor Concentration (uM) / experiment 4,75.2 µM
same,Acceptor Concentration,PAMPA [2]; Acceptor Concentration (uM) / experiment 5,77.1 µM
same,Acceptor Concentration,PAMPA [2]; Acceptor Concentration (uM) / experiment 6,90.3 µM
same,Acceptor Concentration,PAMPA [2]; Acceptor Concentration (uM) / experiment 7,86.9 µM
same,Acceptor Concentration,PAMPA [2]; Acceptor Concentration (uM) / experiment 8,80.4 µM
same,Acceptor Concentration,PAMPA [2]; Acceptor Concentration (uM) / experiment 9,87.3 µM
same,Acceptor Concentration,PAMPA [2]; Acceptor Concentration (uM) / experiment 10,83.7 µM
same,Papp at 500 uM,in vitro; LogPapp,18.2 nm/s
same,Papp at 500 uM,in vitro; Papp,34.4 ± 3.3 nm/s
same,acceptor concentration after incubation,"[3]; Well 1 / [acc], Well 1, standard curve",77 µM
same,acceptor concentration after incubation,"[3]; Well 2 / [acc], Well 2, standard curve",81.5 µM
same,acceptor concentration after incubation,"[3]; Well 3 / [acc], Well 3, standard curve",79.5 µM
same,acceptor concentration after incubation,"[3]; Well 4 / [acc], Well 4, standard curve",78.8 µM
same,acceptor concentration after incubation,"[3]; Well 5 / [acc], Well 5, standard curve",81.8 µM
same,Δ % diffusion,[4],↑5%
same,donor concentration after incubation,"[5]; Well 1 / [donor], Well 1, standard curve",391 µM and 364 µM
same,donor concentration after incubation,"[5]; Well 2 / [donor], Well 2, standard curve",361 µM and 396 µM
same,donor concentration after incubation,"[5]; Well 3 / [donor], Well 3, standard curve",348 µM and 368 µM
same,donor concentration after incubation,"[5]; Well 4 / [donor], Well 4, standard curve",345 µM and 348 µM
same,donor concentration after incubation,"[5]; Well 5 / [donor], Well 5, standard curve",331 µM and 358 µM
same,Papp,PAMPA [6]; Papp (x 10^-6 cm/s) / experiment 1,32 nm/s
same,Papp,PAMPA [6]; Papp (x 10^-6 cm/s) / experiment 2,38 nm/s
same,Papp,PAMPA [6]; Papp (x 10^-6 cm/s) / experiment 3,38 nm/s
same,Papp,PAMPA [6]; Papp (x 10^-6 cm/s) / experiment 4,37 nm/s
same,Papp,PAMPA [6]; Papp (x 10^-6 cm/s) / experiment 5,39 nm/s
same,Papp,PAMPA [6]; Papp (x 10^-6 cm/s) / experiment 6,34 nm/s
same,Papp,PAMPA [6]; Papp (x 10^-6 cm/s) / experiment 7,39 nm/s
same,Papp,PAMPA [6]; Papp (x 10^-6 cm/s) / experiment 8,33 nm/s
same,Papp,PAMPA [6]; Papp (x 10^-6 cm/s) / experiment 9,37 nm/s
same,Papp,PAMPA [6]; Papp (x 10^-6 cm/s) / experiment 10,36 nm/s
same,%T,"[7]; Well 1 / %T, Well 1",0.43% and 0.47%
same,%T,"[7]; Well 2 / %T, Well 2",0.48% and 0.46%
same,%T,"[7]; Well 3 / %T, Well 3",0.48% and 0.47%
same,%T,"[7]; Well 4 / %T, Well 4",0.48% and 0.49%
same,%T,"[7]; Well 5 / %T, Well 5",0.5% and 0.49%
